The source made the active and inactive calls. No cut-off for these calls is given here.
Legend:
Pseudomonas aeruginosa [1] = assay: Antibiotic adjuvant activity against multi-drug resistant Pseudomonas aeruginosa clinical isolate PA262 assessed as fold potentiation incubated for 18 hrs in presence of doxycycline by two fold broth microdilution checkerboard assay; format: functional
Cell membrane = assay: Induction of outer membrane permeabilization in Escherichia coli ATCC 25922 assessed as increase fluorescence intensity by measuring NPN uptake factor at 4 to 8 uM by fluorescence based analysis; format: subcellular; settings: dose 4-8 µM, TDE = time-dependent effect
Acinetobacter baumannii [2] = assay: Antibiotic adjuvant activity against Acinetobacter baumannii ATCC 17978 at 8 to 11 ug/ml incubated for 18 hrs in presence of rifampicin and 10 % FBS media by two fold broth microdilution checkerboard assay; format: functional, organism-based; settings: dose 8-11 µg/ml
Pseudomonas aeruginosa [3] = assay: Antibiotic adjuvant activity against multi-drug resistant Pseudomonas aeruginosa clinical isolate PA262 assessed as doxycycline MIC incubated for 18 hrs in presence of doxycycline by two fold broth microdilution checkerboard assay; format: functional
Pseudomonas aeruginosa [4] = assay: Antibiotic adjuvant activity against multi-drug resistant Pseudomonas aeruginosa clinical isolate PA101243 assessed as doxycycline MIC incubated for 18 hrs in presence of doxycycline by two fold broth microdilution checkerboard assay; format: functional
Pseudomonas aeruginosa [5] = assay: Antibiotic adjuvant activity against multi-drug resistant Pseudomonas aeruginosa clinical isolate 114228 assessed as fold potentiation incubated for 18 hrs in presence of Rifampicin by two fold broth microdilution checkerboard assay; format: functional
Enterococcus faecium [6] = assay: Antibiotic adjuvant activity against Enterococcus faecium 128149 assessed as fold potentiation incubated for 18 hrs in presence of rifampicin by two fold broth microdilution checkerboard assay; format: functional
Pseudomonas aeruginosa [7] = assay: Antibiotic adjuvant activity against multi-drug resistant Pseudomonas aeruginosa clinical isolate PA114228 assessed as inhibition of bacterial growth incubated for 18 hrs in presence of doxycycline by two fold broth microdilution checkerboard assay; format: functional
Pseudomonas aeruginosa [8] = assay: Antibiotic adjuvant activity against Pseudomonas aeruginosa PAO1 assessed as fold potentiation incubated for 18 hrs in presence of doxycycline by two fold broth microdilution checkerboard assay; format: functional
Escherichia coli [9] = assay: Antibiotic adjuvant activity against multi-drug resistant Escherichia coli clinical isolate EC107115 assessed as inhibition of bacterial growth incubated for 18 hrs in presence of minocycline by two fold broth microdilution checkerboard assay; format: functional
Pseudomonas aeruginosa [10] = assay: Antibiotic adjuvant activity against multi-drug resistant Pseudomonas aeruginosa clinical isolate PA101243 assessed as fold potentiation incubated for 18 hrs in presence of doxycycline by two fold broth microdilution checkerboard assay; format: functional
Enterococcus faecium [11] = assay: Antibiotic adjuvant activity against Enterococcus faecium 128149 assessed as inhibition of bacterial growth incubated for 18 hrs in presence of rifampicin by two fold broth microdilution checkerboard assay; format: functional
Escherichia coli [12] = assay: Antibiotic adjuvant activity against multi-drug resistant Escherichia coli clinical isolate 94393 assessed as inhibition of bacterial growth incubated for 18 hrs in presence of Rifampicin by two fold broth microdilution checkerboard assay; format: functional
Escherichia coli [13] = assay: Antibacterial activity against multi-drug resistant Escherichia coli clinical isolate 94474 assessed as inhibition of bacterial growth incubated for 18 hrs by two fold broth microdilution assay; format: functional
Pseudomonas aeruginosa [14] = assay: Antibiotic adjuvant activity against multi-drug resistant Pseudomonas aeruginosa clinical isolate PA264 assessed as fractional inhibitory concentration index incubated for 18 hrs in presence of doxycycline by two fold broth microdilution checkerboard assay; format: functional
Pseudomonas aeruginosa [15] = assay: Antibiotic adjuvant activity against multi-drug resistant Pseudomonas aeruginosa clinical isolate PA262 assessed as fractional inhibitory concentration index incubated for 18 hrs in presence of Rifampicin by two fold broth microdilution checkerboard assay; format: functional
Acinetobacter baumannii [16] = assay: Antibacterial activity against multi-drug resistant Acinetobacter baumannii clinical isolate 110193 assessed as inhibition of bacterial growth incubated for 18 hrs by two fold broth microdilution assay; format: functional
Pseudomonas aeruginosa [17] = assay: Antibiotic adjuvant activity against multi-drug resistant Pseudomonas aeruginosa clinical isolate PA264 assessed as fold potentiation incubated for 18 hrs in presence of Rifampicin by two fold broth microdilution checkerboard assay; format: functional
Acinetobacter baumannii [18] = assay: Antibiotic adjuvant activity against Acinetobacter baumannii ATCC 17978 assessed as fold potentiation incubated for 18 hrs in presence of rifampicin and FBS media by two fold broth microdilution checkerboard assay; format: functional
Escherichia coli [19] = assay: Antibacterial activity against Escherichia coli ATCC 25922 assessed as inhibition of bacterial growth incubated for 18 hrs by two fold broth microdilution assay; format: functional
Pseudomonas aeruginosa [20] = assay: Antibacterial activity against multi-drug resistant Pseudomonas aeruginosa clinical isolate PA262 assessed as inhibition of bacterial growth incubated for 18 hrs by two fold broth microdilution assay; format: functional
Enterococcus faecium [21] = assay: Antibiotic adjuvant activity against Enterococcus faecium 128149 assessed as fractional inhibitory concentration index incubated for 18 hrs in presence of rifampicin by two fold broth microdilution checkerboard assay; format: functional
Acinetobacter baumannii [22] = assay: Antibiotic adjuvant activity against multi-drug resistant Acinetobacter baumannii clinical isolate 92247 assessed as fractional inhibitory concentration index incubated for 18 hrs in presence of Rifampicin by two fold broth microdilution checkerboard assay; format: functional
Pseudomonas aeruginosa [23] = assay: Antibiotic adjuvant activity against multi-drug resistant Pseudomonas aeruginosa clinical isolate PA259 assessed as doxycycline MIC incubated for 18 hrs in presence of doxycycline by two fold broth microdilution checkerboard assay; format: functional
Acinetobacter baumannii [24] = assay: Antibiotic adjuvant activity against Acinetobacter baumannii ATCC 17978 assessed as fold potentiation incubated for 18 hrs in presence of rifampicin and CAMHB Mg2+ media by two fold broth microdilution checkerboard assay; format: functional
Acinetobacter baumannii [25] = assay: Antibiotic adjuvant activity against Acinetobacter baumannii ATCC 17978 assessed as fold potentiation incubated for 18 hrs in presence of vancomycin by two fold broth microdilution checkerboard assay; format: functional
Pseudomonas aeruginosa [26] = assay: Antibiotic adjuvant activity against multi-drug resistant Pseudomonas aeruginosa clinical isolate PA259 assessed as fractional inhibitory concentration index incubated for 18 hrs in presence of doxycycline by two fold broth microdilution checkerboard assay; format: functional
Acinetobacter baumannii [27] = assay: Antibiotic adjuvant activity against multi-drug resistant Acinetobacter baumannii clinical isolate 110193 assessed as inhibition of bacterial growth incubated for 18 hrs in presence of Rifampicin by two fold broth microdilution checkerboard assay; format: functional

In the case of Cl.NC[C@H]1O[C@H](O[C@H]2[C@H](OCc3ccccc3)[C@@H](O[C@H]3O[C@H](COCc4ccccc4)[C@@H](OCc4ccccc4)[C@H](N)[C@H]3OCc3ccccc3)[C@H](N)C[C@@H]2N)[C@H](N)C[C@@H]1OCc1ccccc1, the “fold change (FC)” value (Pseudomonas aeruginosa [1]) is reported as 1, the Activity (Cell membrane) is reported as “Tde” and the Activity (Acinetobacter baumannii [2]) is reported as “inactive”. For the same compound, the MIC (Pseudomonas aeruginosa [3]) was 512 µg/mL, the MIC (Pseudomonas aeruginosa [4]) was > 128 µg/mL and the “fold change (FC)” value (Pseudomonas aeruginosa [5]) was 1. For the same compound, the “fold change (FC)” value (Enterococcus faecium [6]) was 1, the MIC (Pseudomonas aeruginosa [7]) was 8 µg/mL and the “fold change (FC)” value (Pseudomonas aeruginosa [8]) was 4. For the same compound, the MIC (Escherichia coli [9]) was 8 µg/mL, the “fold change (FC)” value (Pseudomonas aeruginosa [10]) was 1 and the MIC (Enterococcus faecium [11]) was 8 µg/mL. The MIC (Escherichia coli [12]) was 8 µg/mL, the MIC (Escherichia coli [13]) was 32 µg/mL and the “fractional inhibitory concentration index (FICI)” value (Pseudomonas aeruginosa [14]) was 1.063. The “fractional inhibitory concentration index (FICI)” value (Pseudomonas aeruginosa [15]) was 1.063, the MIC (Acinetobacter baumannii [16]) was 64 µg/mL and the “fold change (FC)” value (Pseudomonas aeruginosa [17]) was 1. The “fold change (FC)” value (Acinetobacter baumannii [18]) was 4, the MIC (Escherichia coli [19]) was 32 µg/mL and the MIC (Pseudomonas aeruginosa [20]) was 128 µg/mL. For the same compound, the “fractional inhibitory concentration index (FICI)” value (Enterococcus faecium [21]) was 1.5, the “fractional inhibitory concentration index (FICI)” value (Acinetobacter baumannii [22]) was 0.252 and the MIC (Pseudomonas aeruginosa [23]) was 256 µg/mL. For the same compound, the fold change (FC) (Acinetobacter baumannii [24]) was 16, the “fold change (FC)” value (Acinetobacter baumannii [25]) was 8 and the “fractional inhibitory concentration index (FICI)” value (Pseudomonas aeruginosa [26]) was 1.063. The MIC (Acinetobacter baumannii [27]) was 8 µg/mL.
